PubChem BioAssay (NCI)
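GI50 is the concentration that inhibits growth by half. TGI denotes the concentration required for complete inhibition of growth.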

Assays:
Test in all cases: NCI anticancer screen, dose series, 384-well format
OVCAR-4 ovarian = tested on: OVCAR-4 ovarian
RPMI-8226 leukemia = tested on: RPMI-8226 leukemia
IGROV1 ovarian = tested on: IGROV1 ovarian
BT-549 breast = tested on: BT-549 breast
COLO 205 colon = tested on: COLO 205 colon
K-562 leukemia = tested on: K-562 leukemia
SW-620 colon = tested on: SW-620 colon
LOX IMVI melanoma = tested on: LOX IMVI melanoma
SNB-19 CNS = tested on: SNB-19 CNS
HCC-2998 colon = tested on: HCC-2998 colon
EKVX NSCLC = tested on: EKVX NSCLC
RXF 393 renal = tested on: RXF 393 renal
HL-60(TB) leukemia = tested on: HL-60(TB) leukemia
HCT-15 colon = tested on: HCT-15 colon
OVCAR-8 ovarian = tested on: OVCAR-8 ovarian
DU-145 prostate = tested on: DU-145 prostate
SF-539 CNS = tested on: SF-539 CNS
CCRF-CEM leukemia = tested on: CCRF-CEM leukemia
SN12C renal = tested on: SN12C renal
NCI-H226 lung = tested on: NCI-H226 lung
UO-31 renal = tested on: UO-31 renal
U251 glioblastoma = tested on: U251 glioblastoma
A549 NSCLC = tested on: A549 NSCLC
ACHN renal = tested on: ACHN renal
SF-295 CNS = tested on: SF-295 CNS
UACC-257 melanoma = tested on: UACC-257 melanoma
NCI-H322M lung = tested on: NCI-H322M lung
SK-MEL-28 melanoma = tested on: SK-MEL-28 melanoma
MOLT-4 leukemia = tested on: MOLT-4 leukemia
SF-268 CNS = tested on: SF-268 CNS
NCI-H23 lung = tested on: NCI-H23 lung
CAKI-1 renal = tested on: CAKI-1 renal
SNB-75 CNS = tested on: SNB-75 CNS
SK-MEL-5 melanoma = tested on: SK-MEL-5 melanoma
MCF7 breast = tested on: MCF7 breast
HOP-92 NSCLC = tested on: HOP-92 NSCLC
A498 renal = tested on: A498 renal
786-0 renal = tested on: 786-0 renal
HT29 colon = tested on: HT29 colon
SR leukemia = tested on: SR leukemia
SK-OV-3 ovarian = tested on: SK-OV-3 ovarian
M14 melanoma = tested on: M14 melanoma
TK-10 renal = tested on: TK-10 renal
UACC-62 melanoma = tested on: UACC-62 melanoma
HOP-62 NSCLC = tested on: HOP-62 NSCLC
MDA-MB-231 breast = tested on: MDA-MB-231 breast
OVCAR-3 ovarian = tested on: OVCAR-3 ovarian
NCI-H460 NSCLC = tested on: NCI-H460 NSCLC
PC-3 prostate = tested on: PC-3 prostate
NCI-H522 lung = tested on: NCI-H522 lung
MDA-MB-435 melanoma = tested on: MDA-MB-435 melanoma
KM12 colon = tested on: KM12 colon
MALME-3M melanoma = tested on: MALME-3M melanoma
HCT-116 colon = tested on: HCT-116 colon
T-47D breast = tested on: T-47D breast
NCI/ADR-RES ovarian = tested on: NCI/ADR-RES ovarian
HS 578T breast = tested on: HS 578T breast
MDA-MB-468 breast = tested on: MDA-MB-468 breast

C=CC(=O)Nc1cccc(Nc2nc(Nc3ccc(OCCOC)cc3)ncc2F)c1 showed a GI50 (OVCAR-4 ovarian) of 10.3 µM, a TGI (OVCAR-4 ovarian) of 22.1 µM and a GI50 (RPMI-8226 leukemia) of 1.01 µM. For the same molecule, the TGI (RPMI-8226 leukemia) was 2.99 µM, the GI50 (IGROV1 ovarian) was 1 µM and the TGI (IGROV1 ovarian) was 2.28 µM. For the same molecule, the GI50 (BT-549 breast) was 0.802 µM, the TGI (BT-549 breast) was 2.84 µM and the GI50 (COLO 205 colon) was 5.33 µM. For the same molecule, the TGI (COLO 205 colon) was 16.7 µM, the GI50 (K-562 leukemia) was 3.73 µM and the TGI (K-562 leukemia) was 13.6 µM. For the same molecule, the GI50 (SW-620 colon) was 1.84 µM, the TGI (SW-620 colon) was 4.16 µM and the GI50 (LOX IMVI melanoma) was 2.19 µM. For the same molecule, the TGI (LOX IMVI melanoma) was 6.05 µM, the GI50 (SNB-19 CNS) was 4.01 µM and the TGI (SNB-19 CNS) was 14.6 µM. The GI50 (HCC-2998 colon) was 2.55 µM, the TGI (HCC-2998 colon) was 13.7 µM and the GI50 (EKVX NSCLC) was 2.06 µM. The TGI (EKVX NSCLC) was 9.06 µM, the GI50 (RXF 393 renal) was 0.867 µM and the TGI (RXF 393 renal) was 3.26 µM. It also gave a GI50 (HL-60(TB) leukemia) of 1.21 µM, a TGI (HL-60(TB) leukemia) of 2.64 µM and a GI50 (HCT-15 colon) of 1.97 µM. The TGI (HCT-15 colon) was 12.9 µM, the GI50 (OVCAR-8 ovarian) was 2.51 µM and the TGI (OVCAR-8 ovarian) was 8.72 µM. It also gave a GI50 (DU-145 prostate) of 2.21 µM, a TGI (DU-145 prostate) of 13.5 µM and a GI50 (SF-539 CNS) of 1.48 µM. For the same molecule, the TGI (SF-539 CNS) was 3.26 µM, the GI50 (CCRF-CEM leukemia) was 1.62 µM and the TGI (CCRF-CEM leukemia) was 3.39 µM. For the same molecule, the GI50 (SN12C renal) was 1.28 µM, the TGI (SN12C renal) was 4.07 µM and the GI50 (NCI-H226 lung) was 1 µM. For the same molecule, the TGI (NCI-H226 lung) was 5.79 µM, the GI50 (UO-31 renal) was 1.17 µM and the TGI (UO-31 renal) was 3.39 µM. The GI50 (U251 glioblastoma) was 2.86 µM, the TGI (U251 glioblastoma) was 13.1 µM and the GI50 (A549 NSCLC) was 2.88 µM. It also gave a TGI (A549 NSCLC) of 11.2 µM, a GI50 (ACHN renal) of 1.01 µM and a TGI (ACHN renal) of 3.51 µM. The GI50 (SF-295 CNS) was 4.9 µM, the TGI (SF-295 CNS) was 17.1 µM and the GI50 (UACC-257 melanoma) was 6.67 µM. It also gave a TGI (UACC-257 melanoma) of 19.3 µM, a GI50 (NCI-H322M lung) of 1.63 µM and a TGI (NCI-H322M lung) of 8.82 µM. It also gave a GI50 (SK-MEL-28 melanoma) of 9.82 µM, a TGI (SK-MEL-28 melanoma) of 21.6 µM and a GI50 (MOLT-4 leukemia) of 1.47 µM. It also gave a TGI (MOLT-4 leukemia) of 2.84 µM, a GI50 (SF-268 CNS) of 2.34 µM and a TGI (SF-268 CNS) of 10.5 µM. The GI50 (NCI-H23 lung) was 2.42 µM, the TGI (NCI-H23 lung) was 12.9 µM and the GI50 (CAKI-1 renal) was 0.602 µM. The TGI (CAKI-1 renal) was 2.08 µM, the GI50 (SNB-75 CNS) was 1.1 µM and the TGI (SNB-75 CNS) was 2.82 µM. The GI50 (SK-MEL-5 melanoma) was 4.78 µM, the TGI (SK-MEL-5 melanoma) was 18 µM and the GI50 (MCF7 breast) was 3.1 µM. The TGI (MCF7 breast) was 14.8 µM, the GI50 (HOP-92 NSCLC) was 1.82 µM and the TGI (HOP-92 NSCLC) was 9.64 µM. It also gave a GI50 (A498 renal) of 0.493 µM, a TGI (A498 renal) of 1.93 µM and a GI50 ([…]-0 renal) of 1.68 µM. The TGI (786-0 renal) was 6.51 µM, the GI50 (HT29 colon) was 2.98 µM and the TGI (HT29 colon) was 11.6 µM. For the same molecule, the GI50 (SR leukemia) was 0.933 µM, the TGI (SR leukemia) was 2.66 µM and the GI50 (SK-OV-3 ovarian) was 0.755 µM. For the same molecule, the TGI (SK-OV-3 ovarian) was 3.02 µM, the GI50 (M14 melanoma) was 1.71 µM and the TGI (M14 melanoma) was 14.7 µM. It also gave a GI50 (TK-10 renal) of 1.31 µM, a TGI (TK-10 renal) of 3.09 µM and a GI50 (UACC-62 melanoma) of 1.52 µM. For the same molecule, the TGI (UACC-62 melanoma) was 12.8 µM, the GI50 (HOP-62 NSCLC) was 2.9 µM and the TGI (HOP-62 NSCLC) was 11.1 µM. It also gave a GI50 (MDA-MB-231 breast) of 2.3 µM, a TGI (MDA-MB-231 breast) of 14.7 µM and a GI50 (OVCAR-3 ovarian) of 1.22 µM. It also gave a TGI (OVCAR-3 ovarian) of 4.74 µM, a GI50 (NCI-H460 NSCLC) of 2.02 µM and a TGI (NCI-H460 NSCLC) of 10.3 µM. It also gave a GI50 (PC-3 prostate) of 2.81 µM, a TGI (PC-3 prostate) of 12.6 µM and a GI50 (NCI-H522 lung) of 1.48 µM. For the same molecule, the TGI (NCI-H522 lung) was 4.37 µM, the GI50 (MDA-MB-435 melanoma) was 5.33 µM and the TGI (MDA-MB-435 melanoma) was 17.6 µM. It also gave a GI50 (KM12 colon) of 3.53 µM, a TGI (KM12 colon) of 14.3 µM and a GI50 (MALME-3M melanoma) of 3.64 µM. It also gave a TGI (MALME-3M melanoma) of 16.8 µM, a GI50 (HCT-116 colon) of 2.5 µM and a TGI (HCT-116 colon) of 12.7 µM. For the same molecule, the GI50 (T-47D breast) was 2.49 µM, the TGI (T-47D breast) was 13.9 µM and the GI50 (NCI/ADR-RES ovarian) was 2.44 µM. For the same molecule, the TGI (NCI/ADR-RES ovarian) was 6.32 µM, the GI50 (HS 578T breast) was 1.05 µM and the TGI (HS 578T breast) was 2.85 µM. It also gave a GI50 (MDA-MB-468 breast) of 0.562 µM and a TGI (MDA-MB-468 breast) of 1.76 µM.
